# Values quoted from earlier work, collected in patent US5424332A, “Pharmaceutical composition and process for the production thereof” (priority 1993, dated 1995).
# Test system: aflotoxin toxic effects
structure (smiles),measurement,value
O=C(O)/C=C/C(=O)O [fumaric acid],toxic effects of aflotoxin,reduces the toxic effects
